# Assay results as given in patent publication US9718835B2 (China Medical University Hospital, priority 2013, dated 2017).
# Tests used:
# A549 (Lung cancer) = assay: cells; format: cell-based, human; settings: Table 6; read-out: In vitro cytotoxicity A549 (Lung cancer)
# [1] = tested on: KBvin (vincristine-resistant KB subline); assay: Sulforhodamine B cytotoxicity assay, KBvin; format: cell-based, human; settings: Table 1; 72 h; average ± SD; read-out: IC50 KBvin
# From the text: The human tumor cell lines used in this manuscript were A-549 (lung carcinoma), MDA-MB-231 (triple-negative breast cancer), DU-145 (hormone-insensitive prostate cancer), KB (originally isolated from epidermoid carcinoma of the nasopharynx), KBvin (vincristine-resistant KB subline), and HCT116 (colorectal adenocarcinoma). These cell lines were obtained from the Lineberger Comprehensive Cancer Center (UNC-CH) or from ATCC (Manassas, Va.), except KBvin, which was a generous gift of Professor Y.-C. Cheng (Yale University). All cell lines were maintained and assayed in RPMI-1640 medium containing 2 mM L-glutamine and 25 mM HEPES (HyClone), supplemented with 10% heat-inactivated fetal bovine serum (HyClone), 100 μg/mL streptomycin, 100 IU/mL penicillin, and 0.25 μg/mL amphotericin B (Cellgro) in a humidified atmosphere containing 5% CO2 in air. […] The 4-6×10^3 cells/well were cultured for 72 h with various concentrations of test compounds in 96-well plate at 37° C. […] Each assay was performed in triplicate with duplicated samples.
# A-549 cells = assay: Apoptosis assessment, Annexin V-FITC/propidium iodide double staining; format: cell-based, human
# Protocol: Initially, we investigated morphological cellular changes. […] PARP, a hallmark of apoptosis, was also activated by 9a.
# Apoptosis was detected by Annexin V-FITC/propidium iodide double staining kit (BD Biosciences). A-549 cells were treated with 9a for 24 h or 48 h. Cells were harvested by trypsinization and washed with ice-cold PBS. Cells were labeled with annexin V-FITC and propidium iodide for 15 min at room temperature in the dark. Labeled cells were analyzed by FACSCalibur flow cytometer (Becton Dickinson).
# [2] = format: in vivo, BALB/c mice
# Protocol: Acute toxicity of 9a in mouse was evaluated pathologically. Sixty 8-week-old male BALB/c mice were randomized into six groups (n=10) to receive 0 (vehicle only), 30, 100, 200, or 300 mg/kg of 9a i.p. on day zero. One group was kept without treatment as a normal control. […] Histopathological evaluations included 1) glycogen deposition, inflammatory cell infiltration, and focal necrosis in liver, 2) regeneration of renal tubule, inflammatory cell infiltration, and chronic progressive nephropathy in kidney, and 3) inflammatory cell infiltration and adenoma in lung. […] Thus, the animals apparently tolerated treatment with 300 mg/kg of 9a, portending an acceptable safety profile.
# Sixty 8-week-old male BALB/c mice (National Laboratory Animal Center, Taipei, Taiwan) were used to evaluate single-dose toxicity. Mice were randomly divided into six groups (n=10) and received a single i.p. injection of 9a at 0 (vehicle), 30, 100, 200 or 300 mg/kg on day 0. One group was untreated as normal control. Body weight was measured every three days for fifteen days. On the end of experimental period, all animals were euthanized by CO2 and tissues from liver, lung, kidney and spleen were weighted (data not shown). Tissues were fixed with 10% formalin and embedded in paraffin. Sections 3-5 μm in thickness were prepared for histopathological examination. Hematoxylin and eosin (H&E) stained paraffin sections were evaluated histopathologically according to the guideline described by Shackelford et al.^36 and graded the symptomatic lesions. […] Statistically significant results (P<0.05) were is shown. This study was approved by the Institutional Animal Care and Use Committee (IACUC) of China Medical University (Taichung, Taiwan), and was performed according to the institutional guidelines.
smiles,measurement,setting,value
CC[C@@]1(OC(=O)CNC(Cc2ccc(OC)cc2)=NS(=O)(=O)c2ccc(C)cc2)C(=O)OCc2c1cc1n(c2=O)Cc2cc3ccccc3nc2-1 [Compound 9a],IC50,A549 (Lung cancer),80.3 ± 6.13 nM
same,IC50,[1],26 nM
same,annexin V positive cell population,"A-549 cells; A-549, 24 h, vehicle […]",3.7%
same,annexin V positive cell population,"A-549 cells; A-549, 48 h, vehicle 2.0%",34.1%
same,overt toxicity,[2]; 300 mg/kg i.p.,no overt toxicity
same,"acute toxicity (anaphylactic, allergic responses, body weight loss)","[2]; single i.p. 30, 100, 200 or 300 mg/kg, male BALB/c mice","no anaphylactic responses, allergic reactions, or significant body weight loss"
same,"histopathological evaluation of liver, spleen, kidney and lung","[2]; single i.p. up to 300 mg/kg, male BALB/c mice",no adverse effects
